From PubChem BioAssay (NCI)
Values joined by “and” are separate entries in the source; they are usually repeats but may differ in a detail not shown here. Identical values can stand only once.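 Dose response: 5 concentrations. Exposure: 48 h. Format: 96-well plates. Endpoint: linear interpolation; highest concentration if not reached. GI50: concentration for 50% inhibition of growth. TGI denotes the concentration required for complete inhibition of growth.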

Tests used:
Assay in all cases: NCI anticancer screen, dose series, 48 h
[1] = test system: MDA-MB-435
[2] = test system: SK-OV-3 ovarian
[3] = test system: SK-MEL-28 melanoma
[4] = test system: UACC-62 melanoma
[5] = test system: NCI-H460 lung
[6] = test system: MDA-MB-231 breast
[7] = test system: OVCAR-5 ovarian
[8] = test system: OVCAR-4 ovarian
[9] = test system: TK-10 renal
[10] = test system: NCI-H522 lung
[11] = test system: IGROV1 ovarian
[12] = test system: PC-3 prostate
[13] = test system: SNB-19 CNS
[14] = test system: SF-268 CNS
[15] = test system: SF-295 CNS
[16] = test system: A549 NSCLC
[17] = test system: HOP-92 NSCLC
[18] = test system: M14 melanoma
[19] = test system: HCT-15 colon
[20] = test system: UACC-257 melanoma
[21] = test system: BT-549 breast
[22] = test system: MCF7 breast
[23] = test system: CAKI-1 renal
[24] = test system: KM12 colon
[25] = test system: COLO 205 colon
[26] = test system: NCI-H23 lung
[27] = test system: ACHN renal
[28] = test system: SNB-75 CNS
[29] = test system: SR leukemia
[30] = test system: MALME-3M melanoma
[31] = test system: NCI-H226 lung
[32] = test system: K-562 leukemia
[33] = test system: HT29 colon
[34] = test system: RXF 393 renal
[35] = test system: SW-620 colon
[36] = test system: T-47D breast
[37] = test system: HL-60(TB) leukemia
[38] = test system: MDA-N
[39] = test system: SN12C renal
[40] = test system: NCI/ADR-RES ovarian
[41] = test system: OVCAR-8 ovarian
[42] = test system: MOLT-4 leukemia
[43] = test system: LOX IMVI melanoma
[44] = test system: SF-539 CNS
[45] = test system: HCC-2998 colon
[46] = test system: HOP-62 NSCLC
[47] = test system: HCT-116 colon
[48] = test system: CCRF-CEM leukemia
[49] = test system: SK-MEL-5 melanoma
[50] = test system: RPMI-8226 leukemia
[51] = test system: EKVX NSCLC
[52] = test system: UO-31 renal
[53] = test system: DU-145 prostate
[54] = test system: 786-0 renal
[55] = test system: HS 578T breast
[56] = test system: OVCAR-3 ovarian
[57] = test system: SK-MEL-2 melanoma
[58] = test system: U251 CNS
[59] = test system: A498 renal

Q: `O=C1N=C2SC=C(NC(=S)Nc3ccccc3)N2NC12c1ccccc1-c1ccccc12` was tested. Which TGI [1] did it give?
A: > 10000 nM

Q: And the TGI [2]?
A: > 10000 nM

Q: What about the TGI [3] of the same compound?
A: > 10000 nM

Q: And the TGI [4]?
A: > 10000 nM

Q: And the TGI [5]?
A: > 10000 nM

Q: And the TGI [6]?
A: > 10000 nM

Q: And the TGI [7]?
A: > 10000 nM

Q: And the TGI [8]?
A: > 10000 nM

Q: What about the TGI [9] of the same compound?
A: > 10000 nM

Q: What about the TGI [10] of the same compound?
A: > 10000 nM

Q: And the TGI [11]?
A: > 10000 nM

Q: What about the TGI [12] of the same compound?
A: > 10000 nM

Q: What about the TGI [13] of the same compound?
A: > 10000 nM

Q: What about the TGI [14] of the same compound?
A: > 10000 nM

Q: What about the TGI [15] of the same compound?
A: > 10000 nM

Q: What about the TGI [16] of the same compound?
A: > 10000 nM

Q: And the TGI [17]?
A: > 10000 nM

Q: And the TGI [18]?
A: > 10000 nM

Q: What about the TGI [19] of the same compound?
A: > 10000 nM

Q: What about the TGI [20] of the same compound?
A: > 10000 nM

Q: And the TGI [21]?
A: > 10000 nM

Q: And the TGI [22]?
A: > 10000 nM

Q: What about the TGI [23] of the same compound?
A: > 10000 nM

Q: What about the TGI [24] of the same compound?
A: > 10000 nM

Q: What about the TGI [25] of the same compound?
A: > 10000 nM

Q: And the TGI [26]?
A: > 10000 nM

Q: And the TGI [27]?
A: > 10000 nM

Q: And the TGI [28]?
A: > 10000 nM

Q: What about the TGI [29] of the same compound?
A: > 10000 nM

Q: And the TGI [30]?
A: > 10000 nM

Q: What about the TGI [31] of the same compound?
A: > 10000 nM

Q: What about the TGI [32] of the same compound?
A: > 10000 nM

Q: What about the TGI [33] of the same compound?
A: > 10000 nM

Q: What about the TGI [34] of the same compound?
A: > 10000 nM

Q: What about the TGI [35] of the same compound?
A: > 10000 nM

Q: What about the TGI [36] of the same compound?
A: > 10000 nM

Q: What about the TGI [37] of the same compound?
A: > 10000 nM

Q: And the TGI [38]?
A: > 10000 nM

Q: And the TGI [39]?
A: > 10000 nM

Q: And the TGI [40]?
A: > 10000 nM

Q: And the TGI [41]?
A: > 10000 nM

Q: What about the TGI [42] of the same compound?
A: > 10000 nM

Q: And the TGI [43]?
A: > 10000 nM

Q: What about the TGI [44] of the same compound?
A: > 10000 nM

Q: And the TGI [45]?
A: > 10000 nM

Q: What about the TGI [46] of the same compound?
A: > 10000 nM

Q: What about the TGI [47] of the same compound?
A: > 10000 nM

Q: And the TGI [48]?
A: > 10000 nM

Q: What about the TGI [49] of the same compound?
A: > 10000 nM

Q: And the TGI [50]?
A: > 10000 nM

Q: What about the TGI [51] of the same compound?
A: > 10000 nM

Q: And the TGI [52]?
A: > 10000 nM

Q: And the TGI [53]?
A: > 10000 nM

Q: And the TGI [54]?
A: > 10000 nM

Q: And the TGI [55]?
A: > 10000 nM

Q: What does the source list for `C=C1C[C@H]2C=Nc3cc(OCCCOc4cc5c(cc4OC)C(=O)N4CC(=C)C[C@H]4C=N5)c(OC)cc3C(=O)N2C1`?
A: GI50 [1]: 13.4 nM and < 14.8 nM; TGI [1]: 33.9 nM and < 215 nM; GI50 [2]: < 14.7 nM; TGI [2]: 33100 nM; TGI [3]: 43.6 nM; GI50 [4]: 0.264 nM; TGI [4]: 0.834 nM and < 12.3 nM; GI50 [5]: 0.277 nM; TGI [5]: 544 nM; GI50 [6]: 18.5 nM; TGI [6]: 45.2 nM; GI50 [7]: 19.7 nM and < 20.5 nM; GI50 [8]: < 12 nM; TGI [8]: 19.1 nM; TGI [9]: < 177 nM; TGI [10]: 30.9 nM; TGI [11]: 34.1 nM; GI50 [12]: 21.2 nM and < 13.8 nM; TGI [12]: 3130 nM; GI50 [13]: 5.45 nM; TGI [13]: 4390 nM; GI50 [15]: 7.06 nM; TGI [15]: 640 nM; GI50 [16]: 13.5 nM; TGI [16]: > 100000 nM; TGI [17]: 151 nM; GI50 [18]: 8.58 nM and < 13 nM; TGI [18]: 84.6 nM; GI50 [19]: 23.1 nM; GI50 [20]: 21.3 nM; TGI [20]: 42.1 nM and 91.7 nM; GI50 [21]: 12.6 nM; TGI [22]: 41300 nM; GI50 [23]: 11.3 nM; GI50 [24]: 20.1 nM; TGI [24]: 72.2 nM and 16.9 nM; GI50 [25]: 5.46 nM; TGI [25]: 34.3 nM; TGI [26]: 15.8 nM; TGI [27]: 92.2 nM; GI50 [28]: 1.78 nM; TGI [28]: 14.5 nM and < 15.5 nM; TGI [56]: 200 nM; TGI [29]: 218 nM; GI50 [30]: 12.2 nM; TGI [30]: 29.2 nM and < 14.4 nM; TGI [31]: 48.2 nM; TGI [32]: 3440 nM; GI50 [57]: 16.8 nM and < 12.8 nM; TGI [57]: 34.7 nM and < 28.2 nM; TGI [33]: 19700 nM; TGI [34]: < 29.2 nM; GI50 [35]: 14.4 nM; TGI [35]: > 85200 nM; GI50 [36]: 24.4 nM; TGI [36]: 3530 nM; GI50 [37]: 0.245 nM; TGI [38]: 25.6 nM; GI50 [39]: 1.51 nM; GI50 [40]: 317 nM and 97.2 nM; TGI [40]: 2840 nM; TGI [41]: > 18400 nM; TGI [42]: 1.05 nM; GI50 [44]: 4.59 nM; TGI [44]: 11.7 nM and 28.6 nM; TGI [45]: 14.3 nM; TGI [46]: < 215 nM; GI50 [48]: 0.19 nM; TGI [48]: 14.4 nM; TGI [58]: 3300 nM; TGI [59]: 57.8 nM; GI50 [50]: 0.136 nM; TGI [50]: 9.04 nM and 25.2 nM; GI50 [51]: 66.5 nM and 18.2 nM; TGI [52]: 289 nM; GI50 [53]: 4.96 nM and < 13.3 nM; TGI [53]: 24000 nM; GI50 [54]: 1.25 nM; TGI [55]: > 100000 nM

Q: What does the source list for `COc1cccc2c1-c1nc(N)c3c(OC)cccc3c1C2=O`?
A: TGI [1]: > 100000 nM; TGI [2]: > 100000 nM; TGI [3]: > 100000 nM; TGI [4]: > 100000 nM; TGI [6]: > 100000 nM; TGI [7]: > 100000 nM; TGI [8]: > 100000 nM; TGI [9]: > 100000 nM; TGI [10]: > 100000 nM; TGI [11]: > 100000 nM; TGI [12]: > 100000 nM; TGI [14]: > 100000 nM; TGI [15]: > 100000 nM; TGI [16]: > 100000 nM; TGI [17]: > 100000 nM; TGI [18]: > 100000 nM; TGI [19]: > 100000 nM; TGI [20]: > 100000 nM; TGI [21]: > 100000 nM; TGI [22]: > 100000 nM; TGI [23]: > 100000 nM; TGI [24]: 35300 nM; TGI [25]: > 100000 nM; TGI [26]: > 100000 nM; TGI [28]: 46400 nM; TGI [56]: > 100000 nM; TGI [29]: > 100000 nM; TGI [30]: > 100000 nM; TGI [31]: > 100000 nM; TGI [32]: > 100000 nM; TGI [57]: > 100000 nM; TGI [33]: > 100000 nM; TGI [35]: > 100000 nM; TGI [36]: > 100000 nM; TGI [37]: 72500 nM; TGI [38]: > 100000 nM; TGI [39]: > 100000 nM; TGI [40]: > 100000 nM; TGI [41]: > 100000 nM; TGI [42]: > 100000 nM; TGI [43]: > 100000 nM; TGI [44]: > 100000 nM; TGI [46]: 58500 nM; TGI [47]: > 100000 nM; TGI [48]: > 100000 nM; TGI [58]: > 100000 nM; TGI [49]: > 100000 nM; TGI [59]: > 100000 nM; TGI [50]: > 100000 nM; TGI [51]: > 100000 nM; TGI [52]: > 100000 nM; TGI [53]: > 100000 nM; TGI [54]: > 100000 nM; TGI [55]: 52300 nM
